Test results published in article PMC4567266 (PLoS ONE, 2015).

Experiments:
Type in all cases: cell-based
[1] = tested on: THP-1 (a human monocytic leukemia cell line); assay: Cell proliferation assay (WST-8), THP-1; settings: for IC50: DMSO less than 1%
Procedure: (§1) We used THP-1 (a human monocytic leukemia cell line), L929 (a mouse fibroblast cell line), RAW264.7 (a mouse macrophage cell line), and mouse bone marrow-derived macrophages cultured in a flask or plate at 37°C, under a humidified atmosphere of 5% CO2 in air. THP-1 and L929 were obtained from Japan Health Science Foundation. RAW264.7 was purchased from DS Pharma Biomedical Co., Ltd. These cells were cultured in RPMI1640 + 10% FCS consisting of RPMI1640 [+] L-glutamine (Gibco) supplemented with antibiotics (penicillin and streptomycin; Gibco) and 10% fetal calf serum (FCS; Biowest). In cell proliferation assays, they were cultured in flat-bottomed 96-well plates (Corning) in 100 μl/well at a concentration of 1 x 10^5/ml with or without test samples. In the case of mouse peritoneal cells, we employed 1 x 10^6/ml as a cell concentration. After finishing the culture, we added 10 μl of a coloring reagent, WST-8 (Kishida Chemical Co.), which converts to water-soluble colored formazan by the action of a mitochondrial enzyme. Cells were additionally incubated with WST-8 for 3 h and the coloring reaction was stopped by adding 10 μl of 0.1% sodium dodecyl sulfate (SDS) solution. The absorbance of each well was then measured at 450 nm with a Multiskan Ascent plate reader (Labsystems). In principle, we performed cell proliferation assays in duplicate. Half-maximal (50%) inhibitory concentration (IC50) of each test sample was calculated according to the reported formula [15].
(§2) We examined the inhibitory activities of food constituents in cell proliferation assays. Test compounds used in the assays were as follows: curcumin (Wako or Sigma-Aldrich), zerumbone (Wako), genistein (Sigma-Aldrich), chalcone (Wako), corosolic acid (Wako), carnosol (Wako), ursolic acid (Wako), epigallocatechin (Sigma-Aldrich), isoflavone (Wako), apigenin (Wako), chrysin (Wako), flavanone (Wako), resveratrol (Wako), flavone (Wako), quercetin (Wako), daidzein (Wako), and clodronate (Sigma-Aldrich). These compounds were firstly dissolved with dimethyl sulfoxide (DMSO; Wako) and then appropriately diluted with RPMI1640 + 10% FCS to apply the assays. The final concentration of DMSO was adjusted not to exceed 1% at most in cell cultures.

[2] = tested on: mouse bone marrow-derived macrophages; assay: Cell proliferation assay (WST-8), mouse bone marrow-derived macrophages; settings: for IC50: means ± range (n = 2) or standard deviation (n > 2), DMSO less than 1%
Procedure: as §1, §2

[3] = tested on: L929 (a mouse fibroblast cell line); assay: Cell proliferation assay (WST-8), L929; settings: for IC50: means ± range (n = 2) or standard deviation (n > 2), DMSO less than 1%
Procedure: as §1, §2

[4] = tested on: RAW264.7 (a mouse macrophage cell line); assay: Cell proliferation assay (WST-8), RAW264.7; settings: cultured for 3 days
Procedure: as §1, with “In the case of mouse peritoneal cells, we employed 1 x 10^6/ml as a cell concentration. After finishing the culture, we added 10 μl of a coloring reagent, WST-8 (Kishida Chemical Co.), which converts to water-soluble colored formazan by the action of a mitochondrial enzyme. Cells were additionally incubated with WST-8 for 3 h and the coloring reaction was stopped by adding 10 μl of 0.1% sodium dodecyl sulfate (SDS) solution.” left out, “In principle, we performed cell proliferation assays in duplicate.” left out
After culturing, they were incubated with WST-8 for 3 h to assess viable cells in the culture. Resultant coloring reaction by WST-8 was measured with a plate-reader at the absorbance of 450 nm. In the vertical axis, the absorbance of only the medium was defined as 0%. Symbols in the Figure represent the percentage of absorbance with curucmin or liposomes to that without the test samples. […]

[5] = Homo sapiens, THP-1, means ± range (n = 2) or standard deviation (n > 2)
[6] = means ± range (n = 2) or standard deviation (n > 2)

SMILES	IC50 [1, 5]	IC50 [1, 6]	IC50 ([2]; Mus musculus, Macrophage)	IC50 ([3]; Mus musculus, L929)	other results
O=c1cc(-c2ccc(O)cc2)oc2cc(O)cc(O)c12 [Apigenin, apigenin]	37.9 ± 3.9 µM	–	70 ± 19.8 µM	46.4 ± 3.3 µM	–
CC(C)c1cc2c(c(O)c1O)[C@@]13CCCC(C)(C)[C@@H]1C[C@@H]2OC3=O [Carnosol, carnosol]	< 30 µM	20.5 ± 2.7 µM	63.8 ± 5.5 µM	50.1 ± 2.6 µM	–
O=C(/C=C/c1ccccc1)c1ccccc1 [Chalcone, chalcone]	< 30 µM	17.4 ± 1.8 µM	104 µM	69.5 ± 1.2 µM	–
O=c1cc(-c2ccccc2)oc2cc(O)cc(O)c12 [Chrysine, chrysin]	46.8 ± 2.8 µM	–	58.2 µM	76.3 ± 11 µM	–
O=P(O)(O)C(Cl)(Cl)P(=O)(O)O [Clodronate, clodronate, reference compound]	> 400 µM	–	25.7 ± 15.6 µM	336 ± 54.9 µM	Inhibition of THP-1 cell proliferation (in words) [1]: weaker activity; Inhibition of mouse bone marrow-derived macrophage proliferation (in words) [2]: comparable strong activity; Inhibition of L929 cell proliferation (in words) [3]: weaker activity
C[C@H]1[C@H](C)CC[C@]2(C(=O)O)CC[C@]3(C)C(=CC[C@@H]4[C@@]5(C)C[C@@H](O)[C@H](O)C(C)(C)[C@@H]5CC[C@]43C)[C@H]12 [Corosolic acid, corosolic acid]	< 30 µM	18.2 ± 0.2 µM	19.6 ± 0.6 µM	17.7 ± 0.2 µM	–
COc1cc(/C=C/C(=O)CC(=O)/C=C/c2ccc(O)c(OC)c2)ccc1O [Curcumin, diferuloylmethane]	–	13 ± 3.2 µM	22.4 ± 3.6 µM	22.8 ± 10.8 µM	Inhibition of THP-1 cell proliferation (in words) [1]: dose-dependent inhibition; IC50 ([1]; means ± range (n = 2) or standard deviation (n > 2), listed as curcumin): < 30 µM; Inhibition of RAW264.7 cell proliferation (in words) [4]: dose-dependent inhibition
Oc1cc(O)c2c(c1)O[C@H](c1cc(O)c(O)c(O)c1)[C@H](O)C2 [Epigallocatechin, epigallocatechin]	37 ± 29.6 µM	–	157 ± 19.9 µM	40.1 ± 3.7 µM	–

Second part, led by results:

IC50 [1, 5]	IC50 [1, 6]	SMILES	IC50 ([2]; Mus musculus, Macrophage)	IC50 ([3]; Mus musculus, L929)	other results
> 400 µM	–	O=c1c(-c2ccc(O)cc2)coc2cc(O)ccc12 [Daidzein, daidzein]	65.1 ± 33.5 µM	220 ± 57.9 µM	–
–	55.1 ± 10.9 µM	O=C1CC(c2ccccc2)Oc2ccccc21 (stereo not drawn) [Flavanone, flavanone]	–	–	IC50 [2]: 225 ± 66.1 µM; IC50 [3]: 211 ± 29.6 µM
86.9 ± 4.1 µM	–	O=c1cc(-c2ccccc2)oc2ccccc12 [Flavone, flavone]	180 µM	34.5 ± 3.4 µM	–
< 30 µM	16 ± 6.1 µM	O=c1c(-c2ccc(O)cc2)coc2cc(O)cc(O)c12 [Genistein, genistein]	29 ± 21.5 µM	28.2 ± 7.5 µM	–
37.6 ± 11.6 µM	–	O=c1c(-c2ccccc2)coc2ccccc12 [Isoflavone, isoflavone]	106 ± 7.8 µM	65.5 ± 3.6 µM	–
125 ± 24.1 µM	–	O=c1c(O)c(-c2ccc(O)c(O)c2)oc2cc(O)cc(O)c12 [Quercetin, quercetin]	126 ± 83.4 µM	117 ± 32.5 µM	–
64.6 ± 8.5 µM	–	Oc1ccc(/C=C/c2cc(O)cc(O)c2)cc1 [Resveratrol, resveratrol]	77.2 ± 13 µM	84.8 ± 29.1 µM	–
< 30 µM	24.6 ± 3.4 µM	C[C@H]1[C@H](C)CC[C@]2(C(=O)O)CC[C@]3(C)C(=CC[C@@H]4[C@@]5(C)CC[C@H](O)C(C)(C)[C@@H]5CC[C@]43C)[C@H]12 [Ursolic acid, ursolic acid]	16.3 ± 4.5 µM	30.7 ± 0.8 µM	–
< 30 µM	16 ± 0.5 µM	C/C1=C\CC(C)(C)/C=C/C(=O)/C(C)=C/CC1 [Zerumbone, zerumbone]	32.1 µM	30.4 ± 0.1 µM	–
